# Measured values from patent US7632838B2, “11-beta HSD1 inhibitors” (Wyeth, priority 2006, dated 2009).
# Molecular target: T1, human 11 b-HSD1 (Homo sapiens, UniProt P28845)
# T1 construct: expressed in transfected cells
# Experiment: cell-based assay, stable CHO cell line expressing human 11 b-HSD1 (cortisone to cortisol, DiscoverX HitHunter Cortisol Assay)
# Conditions: 11βHSD1 inhibition; stated as 'less than about'; read-out: inhibition constant IC50
# Protocol: Compounds described herein can be tested in a cell-based assay using a stable CHO cell line expressing human 11 b-HSD1. Cells are plated at 20,000 cells/well in 96 well plates and incubated overnight (12-16 hrs) at 37° C./5% CO2. Cells are treated with different concentration of compound in 90 microliter serum-free media and incubated for 30 minutes at 37° C./5% CO2. 10 ul of 5 micromolar cortisone (final concentration 500 nM) is then added to the cells and the plate is incubated at 37° C./5% CO2 for 120 minutes. 15 microliter of media is withdrawn and amount of cortisol in the media is measured using the DiscoverX HitHunter Cortisol Assay (DiscoverX corp, CA).
# T1 sequence (P28845 whole entry): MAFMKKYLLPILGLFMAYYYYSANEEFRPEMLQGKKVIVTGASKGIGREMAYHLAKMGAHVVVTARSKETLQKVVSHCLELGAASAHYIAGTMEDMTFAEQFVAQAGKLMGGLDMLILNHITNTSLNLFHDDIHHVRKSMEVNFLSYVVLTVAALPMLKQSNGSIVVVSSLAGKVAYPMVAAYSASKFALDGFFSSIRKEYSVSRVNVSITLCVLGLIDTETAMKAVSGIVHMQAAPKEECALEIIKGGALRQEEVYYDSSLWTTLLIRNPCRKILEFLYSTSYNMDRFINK
row,IC50 [µM],SMILES
1,< 10,"CC(C)(C)c1ccc(S(=O)(=O)N2CCN(c3ncccc3Cl)CC2)cc1 [Example 2A, 1-[(4-tert-butylphenyl)sulfonyl]-4-(3-chloropyridin-2-yl)piperazine]"
2,< 10,"O=S(=O)(c1ccc2ccccc2c1)N1CCN(c2ncccc2Cl)CC1 [Example 2B, 1-(3-chloropyridin-2-yl)-4-(2-naphthylsulfonyl)piperazine]"
3,< 10,"O=S(=O)(c1ccccc1Cl)N1CCN(c2ncccc2Cl)CC1 [Example 2D, 1-[(2-chlorophenyl)sulfonyl]-4-(3-chloropyridin-2-yl)piperazine]"
4,< 10,"O=S(=O)(c1ccc(Cl)cc1)N1CCN(c2ncccc2Cl)CC1 [Example 2E, 1-[(4-chlorophenyl)sulfonyl]-4-(3-chloropyridin-2-yl)piperazine]"
5,< 10,"Cc1ccc(S(=O)(=O)N2CCN(c3ncccc3Cl)CC2)cc1 [Example 2F, 1-(3-chloropyridin-2-yl)-4-[(4-methylphenyl)sulfonyl]piperazine]"
6,< 10,"COc1ccc(S(=O)(=O)N2CCN(c3ncccc3Cl)CC2)cc1 [Example 2G, 1-(3-chloropyridin-2-yl)-4-[(4-methoxyphenyl)sulfonyl]piperazine]"
7,< 10,"O=S(=O)(c1ccc(-c2ccccc2)cc1)N1CCN(c2ncccc2Cl)CC1 [Example 2H, 1-(biphenyl-4-ylsulfonyl)-4-(3-chloropyridin-2-yl)piperazine]"
8,< 10,"O=S(=O)(Cc1ccccc1)N1CCN(c2ncccc2Cl)CC1 [Example 2I, 1-(benzylsulfonyl)-4-(3-chloropyridin-2-yl)piperazine]"
9,< 10,"O=S(=O)(c1ccc(C(F)(F)F)cc1Br)N1CCN(c2ncccc2Cl)CC1 [Example 2J, 1-{[2-bromo-4-(trifluoromethyl)phenyl]sulfonyl}-4-(3-chloropyridin-2-yl)piperazine]"
10,< 10,"C[C@H]1CN(C(=O)OCc2ccccc2)C[C@H](C)N1S(=O)(=O)c1ccc(C(C)(C)C)cc1 [Example 5, Benzyl (3S,5S)-4-[(4-tert-butylphenyl)sulfonyl]-3,5-dimethylpiperazine-1-carboxylate]"
11,< 10,"C[C@H]1CN(c2ncccc2Cl)C[C@H](C)N1S(=O)(=O)c1ccc(C(C)(C)C)cc1 [Example 6, (2S,6S)-1-[(4-tert-butylphenyl)sulfonyl]-4-(3-chloropyridin-2-yl)-2,6-dimethylpiperazine]"
12,< 10,"O=S(=O)(c1ccc2ccccc2c1)N1CCN(c2ccc(F)cc2C(F)(F)F)CC1 [Example 9F, 1-[4-fluoro-2-(trifluoromethyl)phenyl]-4-(2-naphthylsulfonyl)piperazine]"
13,< 10,"O=S(=O)(c1ccc(Cl)c(Cl)c1)N1CCN(c2ncccc2F)CC1 [Example 13A, 1-[(3,4-dichlorophenyl)sulfonyl]-4-(3-fluoropyridin-2-yl)piperazine]"
14,< 10,"N#Cc1cccnc1N1CCN(S(=O)(=O)c2ccc(Cl)c(Cl)c2)CC1 [Example 13B, 2-{4-[(3,4-dichlorophenyl)sulfonyl]piperazin-1-yl}nicotinonitrile]"
15,< 10,"O=[N+]([O-])c1cccnc1N1CCN(S(=O)(=O)c2ccc(Cl)c(Cl)c2)CC1 [Example 13C, 1-[(3,4-dichlorophenyl)sulfonyl]-4-(3-nitropyridin-2-yl)piperazine]"

# System: not given
# Experiment: not given
# Conditions: not given
row,melting point [°C],SMILES
1,191 to 199,"O=C(N1CCC(Oc2c(Cl)cccc2Cl)CC1)C12CC3CC(CC(C3)C1)C2 [Example 18D, Adamantan-1-yl-[4-(2,6-dichloro-phenoxy)-piperidin-1-yl]-methanone]"
